What all share (settings): Table 1
In one test the target is PKC-β1 (Homo sapiens, UniProt P05771). Briefly: PKC Enzyme Assay, beta-1 isozyme. The test is classed as biochemical. The method, then:
(§1) PKC enzymes=alpha, beta I, beta II, gamma, delta, epsilon, eta and zeta.
(§2) Assay components in a total volume of 250 μL are as follows:
(§3) For all the enzymes either histone type HL (Worthington) or myelin basic protein is used as substrate. The assay is started by addition of protein kinase C enzyme incubated at 30° C. for 10 minutes and stopped by adding 0.5 mL of cold trichloroacetic acid (Amresco) followed by 100 μL of 1 mg/mL bovine serum albumin (Sigma, St. Louis, Mo.). The precipitate is collected by vacuum filtration on glass fiber filters employing a TOMTEC™ filtration system and quantified by counting in a beta scintillation counter.

The target of another test is PKC-α (Homo sapiens, UniProt P17252). In words: PKC Enzyme Assay, alpha isozyme. Format: biochemical. Here is the method: as §1, §2, §3
Test [1] concerns the target T1, cAMP-dependent kinase catalytic subunit (Bos taurus, UniProt P00517).
T1 construct: purchased Sigma, St. Louis, Mo; host or cells: bovine heart
In words: cAMP-Dependent protein Kinase Catalytic Subunit Assay. Format: biochemical, bovine. The method, then: cAMP-Dependent protein Kinase Catalytic Subunit Assay (PEA) The Assay components are in a total volume of 250 μL: 20 mM HEPES (Sigma, St. Louis, Mo.) buffer pH 7.5, 200 μg/mL histone type HL (Worthington), 10 mM magnesium chloride (Sigma, St. […] The reaction is initiated by addition of bovine heart cAMP-dependent kinase catalytic subunit (Sigma, St. Louis, Mo.), incubated to 30° C. for 10 minutes and stopped by adding 0.5 mL ice cold Trichloroacetic acid (Amresco) followed by 100 μL of 1 mg/mL bovine serum albumin (Sigma). The precipitate is collected by vacuum filtrated on glass fiber filters employing a TOMTEC™ and quantified by counting in a beta scintillation counter. This assay is done identical to the protein kinase C (PKC) enzyme assay except that no phospholipids or diacylglycerol are employed in the assay and the histone substrate is specific for the cAMP-dependent catalytic subunit enzyme.

The next test has as its target PKC-β2 (Homo sapiens, UniProt P05771). Briefly: PKC Enzyme Assay, beta-2 isozyme. The test is classed as biochemical. The method, then:
as §1, §2, §3

For a further test, the target named is T2, src (Homo sapiens, UniProt P12931).
T2 construct: purchased Onogene Science, Inc. PK02 and PK03
T2 sequence (P12931 whole entry, species assumed): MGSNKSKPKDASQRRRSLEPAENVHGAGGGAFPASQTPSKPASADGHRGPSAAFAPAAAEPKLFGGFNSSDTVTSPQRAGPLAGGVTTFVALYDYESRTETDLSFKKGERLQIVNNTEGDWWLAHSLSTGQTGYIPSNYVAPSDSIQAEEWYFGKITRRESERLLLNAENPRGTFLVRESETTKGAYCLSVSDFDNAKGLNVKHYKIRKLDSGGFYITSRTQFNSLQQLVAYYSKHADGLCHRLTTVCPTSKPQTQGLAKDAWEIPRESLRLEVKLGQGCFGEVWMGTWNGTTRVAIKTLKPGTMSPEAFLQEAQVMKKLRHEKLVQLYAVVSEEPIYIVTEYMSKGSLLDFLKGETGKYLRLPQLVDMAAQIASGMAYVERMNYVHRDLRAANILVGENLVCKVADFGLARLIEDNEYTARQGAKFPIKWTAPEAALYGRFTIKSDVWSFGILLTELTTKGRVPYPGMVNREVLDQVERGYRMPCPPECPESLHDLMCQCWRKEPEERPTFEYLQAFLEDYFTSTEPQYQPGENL
Briefly: Protein Tyrosine Kinase Assay (src). The test is classed as biochemical. Here is the method: Protein Tyrosine Kinase Assay (src)
The Assay components are the following:
4 μL DMSO or DMSO/inhibitor

The target of the next test is T3, casein protein kinase II (Rattus norvegicus, UniProt P19139).
T3 construct: isolated from rat brain homogenate; from tissue; host or cells: rat brain homogenate
T3 sequence (P19139 whole entry): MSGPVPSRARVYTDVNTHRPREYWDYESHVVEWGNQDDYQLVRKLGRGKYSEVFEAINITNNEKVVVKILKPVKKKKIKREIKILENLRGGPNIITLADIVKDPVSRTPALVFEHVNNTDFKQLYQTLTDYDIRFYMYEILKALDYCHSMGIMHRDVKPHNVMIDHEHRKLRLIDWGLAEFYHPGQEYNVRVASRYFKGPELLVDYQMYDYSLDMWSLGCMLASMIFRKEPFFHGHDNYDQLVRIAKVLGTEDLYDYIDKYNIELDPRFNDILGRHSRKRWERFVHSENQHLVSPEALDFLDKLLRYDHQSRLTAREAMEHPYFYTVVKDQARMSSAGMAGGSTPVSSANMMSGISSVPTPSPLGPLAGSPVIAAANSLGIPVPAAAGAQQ
T3 sequence (P67874 2-215 partner limits assumed): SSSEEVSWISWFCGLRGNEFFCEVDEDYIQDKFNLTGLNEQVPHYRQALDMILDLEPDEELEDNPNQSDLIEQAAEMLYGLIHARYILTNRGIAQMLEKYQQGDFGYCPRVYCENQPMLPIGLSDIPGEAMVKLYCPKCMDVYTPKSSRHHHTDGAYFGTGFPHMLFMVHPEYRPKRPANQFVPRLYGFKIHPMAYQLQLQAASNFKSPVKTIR
In words: Casein Protein Kinase II Assay (CK-II). Format: biochemical. Here is the method:
Casein Protein Kinase II Assay (CK-II)
The Casein Protein Kinase II Assay is described in Neurochem. […] The assay components are in a total volume of 250 μL: 20 mM Tris-HCl, pH 7.5, 5 mM sodium fluoride, 50 mg/mL Casein (Sigma, St. Louis, Mo.), 10 mM magnesium chloride (Sigma, St. Louis, Mo.), 10 μL DMSO or DMSO/inhibitor and 30 μm (gamma-32P) ATP (DuPont). Initiation of the reaction is performed by addition of casein protein kinase II (isolated from rat brain homogenate), incubated at room temperature for 10 minutes and stopped by the addition of 0.5 mL ice cold Trichloroacetic acid (Amresco) followed by 100 μL of 1 mg/mL bovine serum albumin (Sigma, St. Louis, Mo.). The precipitate is collected by vacuum filtration on glass fiber filters and quantified by counting in a beta scintillation counter.
Assay components in order of addition
10 μL or DMSO or DMSO/inhibitor
25 μL of AT32P in 300 μM magnesium chloride
40 μL of enzyme (undiluted)
Buffer prepared as follows:
(Final volume=3.5 mL: amount of 20 assays)

In test [2] the target is calcium calmodulin dependent protein kinase. Briefly: Calcium Calmodulin Dependent Protein Kinase Assay (CAM). Format: biochemical, rat. Here is the method:
Calcium Calmodulin Dependent Protein Kinase Assay (CAM)
The reaction is initiated by the addition of calcium calmodulin dependent protein kinase (isolated from rat brain homogenate), incubated at room temperature for 10 minutes and stopped by adding 0.5 mL ice cold trichloroacetic acid (Amresco) followed by 100 μL of 1 mg/mL bovine serum albumin (Sigma, St. Louis, Mo.). The precipitate is collected by vacuum filtration on glass fiber filters and quantified by counting in a beta scintillation counter.
25 μL calmodulin (250 μg/mL)
10 μL DMSO or DMSO/inhibitor

Counter-ions that a name gives are not always drawn.

Drawing on patent publication US5696108A, “Protein kinase C inhibitors” (Eli Lilly and Company, priority 1996, dated 1997), this text covers IC50 for 17 compounds.

Chain of PKC-β1 (P05771 whole entry): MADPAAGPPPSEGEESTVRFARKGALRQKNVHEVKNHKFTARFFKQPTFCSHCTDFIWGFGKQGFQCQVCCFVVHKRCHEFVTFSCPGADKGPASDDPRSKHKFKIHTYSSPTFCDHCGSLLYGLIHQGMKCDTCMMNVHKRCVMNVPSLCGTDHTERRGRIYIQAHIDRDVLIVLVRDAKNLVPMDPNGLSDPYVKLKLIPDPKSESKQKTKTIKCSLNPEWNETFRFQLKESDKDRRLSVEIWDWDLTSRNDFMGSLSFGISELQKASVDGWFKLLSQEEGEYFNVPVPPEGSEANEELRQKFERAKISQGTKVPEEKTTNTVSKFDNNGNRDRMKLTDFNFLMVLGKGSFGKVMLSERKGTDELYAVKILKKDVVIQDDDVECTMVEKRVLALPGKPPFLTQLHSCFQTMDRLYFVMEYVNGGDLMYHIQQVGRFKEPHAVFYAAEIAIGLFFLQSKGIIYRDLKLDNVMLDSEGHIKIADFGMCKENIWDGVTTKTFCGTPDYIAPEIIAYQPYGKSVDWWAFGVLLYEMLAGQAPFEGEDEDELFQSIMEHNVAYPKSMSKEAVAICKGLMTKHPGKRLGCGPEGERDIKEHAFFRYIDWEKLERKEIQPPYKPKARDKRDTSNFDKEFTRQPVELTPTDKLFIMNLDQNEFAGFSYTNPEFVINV
Chain of PKC-β2 (P05771 1-673 isoform P05771-2): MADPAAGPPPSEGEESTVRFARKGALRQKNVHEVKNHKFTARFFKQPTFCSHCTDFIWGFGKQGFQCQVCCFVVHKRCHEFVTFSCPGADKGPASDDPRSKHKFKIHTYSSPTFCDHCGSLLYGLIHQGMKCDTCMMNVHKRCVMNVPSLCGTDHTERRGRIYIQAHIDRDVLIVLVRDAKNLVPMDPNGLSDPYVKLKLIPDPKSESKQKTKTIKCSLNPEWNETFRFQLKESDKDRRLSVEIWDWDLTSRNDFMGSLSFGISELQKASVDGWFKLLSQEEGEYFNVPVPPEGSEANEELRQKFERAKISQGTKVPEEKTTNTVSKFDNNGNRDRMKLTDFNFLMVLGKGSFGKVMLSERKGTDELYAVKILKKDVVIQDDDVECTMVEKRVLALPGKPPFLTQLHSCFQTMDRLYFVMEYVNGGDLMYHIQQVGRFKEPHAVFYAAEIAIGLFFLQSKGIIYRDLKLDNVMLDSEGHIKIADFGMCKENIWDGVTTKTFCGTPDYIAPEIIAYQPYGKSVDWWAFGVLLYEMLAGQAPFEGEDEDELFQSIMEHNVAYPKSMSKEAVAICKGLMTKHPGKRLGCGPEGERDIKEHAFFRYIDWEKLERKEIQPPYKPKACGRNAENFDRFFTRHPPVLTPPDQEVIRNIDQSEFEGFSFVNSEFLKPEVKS

One may read the IC50 as the midpoint of a concentration-inhibition curve. Consider `O=C1NC(=O)C2=C1c1cn(c3ccccc13)CCCC(COCc1ccccc1)CCn1cc2c2ccccc21` (racemic) [Example 30, (±)-3,4-[(N,N'-1,1'-(3"-(benzyloxymethylene)hexane)-bis-(3,3'-indolyl)]-1H-pyrrole-2,5-dione], for which the IC50 against PKC-β1 was 1 µM; against PKC-α, more than 100 µM; in test [1] it was more than 100 µM; against PKC-β2 it was 2 µM; at src, more than 100 µM; against casein protein kinase II it was more than 10 µM. Moreover, the IC50 in test [2] is more than 10 µM.
Consider `O=C1NC(=O)C2=C1c1cn(c3ccccc13)CCCOC(CO)CCn1cc2c2ccccc21` (stereo not shown) [Example 2, 3,4-[(N,N'-1,1')-((3"-propoxy)-3'"(O)-4'"(hydroxy)butane)-bis-(3,3'-indolyl)]-1(H)-pyrrole-2,5-dione], for which the IC50 on PKC-β1 is 0.4 µM; against PKC-α, 4 µM; in test [1], more than 100 µM; against PKC-β2 it was 0.2 µM; on src, more than 100 µM; at casein protein kinase II, more than 100 µM. The IC50 in test [2] was more than 100 µM.
As for `NCC1CCn2cc(c3ccccc32)C2=C(C(=O)NC2=O)c2cn(c3ccccc23)CCO1` (stereo not shown) [Example 4, 3,4-[(N,N'-1,1'-((2'"-ethoxy)-3'"(O)-4'"-(amino)-butane)-bis-(3,3'-indolyl)]-1(H)-pyrrole-2,5-dione trifluoroacetate salt], the IC50 against PKC-β1 is 0.02 µM; against PKC-α, 0.3 µM; on PKC-β2, 0.008 µM; against src, 37 µM; on casein protein kinase II, more than 100 µM; in test [2], 3 µM.
Consider `NC[C@H]1CCn2cc(c3ccccc32)C2=C(C(=O)NC2=O)c2cn(c3ccccc23)CCO1` [Example 4r], for which the IC50 on PKC-β1 is 0.005 µM; on PKC-α, 0.3 µM; in test [1] it was more than 100 µM; against PKC-β2, 0.021 µM; against src, 33 µM; at casein protein kinase II, more than 100 µM. In addition, in test [2], the IC50 was determined as 0.69 µM.
For `NC[C@@H]1CCn2cc(c3ccccc32)C2=C(C(=O)NC2=O)c2cn(c3ccccc23)CCO1` [Example 4s], the IC50 was 0.048 µM on PKC-β1; 1.3 µM against PKC-α; more than 100 µM in test [1]; 0.033 µM against PKC-β2; 63 µM on src; more than 100 µM against casein protein kinase II. For the same compound, the IC50 in test [2] was 2.5 µM.
Regarding `NCC1CCn2cc(c3ccccc32)C2=C(C(=O)NC2=O)c2cn(c3ccccc23)CCCO1` (stereo not shown) [Example 9], the IC50 on PKC-β1 was 0.35 µM; against PKC-α, 3 µM; in test [1], more than 100 µM; at PKC-β2, 0.16 µM; against src, 58 µM; against casein protein kinase II, more than 100 µM. Besides, the IC50 in test [2] was found to be 26 µM.
Turning to `O=C1NC(=O)C2=C1c1cn(c3ccccc13)CCO[C@@H](CN1CCCC1)CCn1cc2c2ccccc21` [Example 20r], the IC50 against PKC-α is 0.89 µM; in test [1] it was more than 100 µM; against src, 74 µM; on casein protein kinase II, more than 100 µM; in test [2], 7.3 µM.
In the case of `O=C1NC(=O)C2=C1c1cn(c3ccccc13)CCO[C@H](CN1CCCC1)CCn1cc2c2ccccc21` [Example 20s], the 50% inhibitory concentration (IC50) on PKC-α is 3 µM; in test [1], more than 100 µM; on src, 16 µM; at casein protein kinase II it was more than 100 µM; in test [2], 6.7 µM.
Regarding `O=C1NC(=O)C2=C1c1cn(c3ccccc13)CCO[C@@H](CNS(=O)(=O)c1ccccc1)CCn1cc2c2ccccc21` [Example 21r], the IC50 against PKC-β1 is 0.18 µM; against PKC-α it was 68 µM; in test [1], more than 100 µM; against PKC-β2, 0.05 µM; against src, more than 100 µM; at casein protein kinase II, more than 100 µM.
As to `O=C1NC(=O)C2=C1c1cn(c3ccccc13)CCCCCCn1cc2c2ccccc21` [Example 28, 3,4-[(N,N'-1,1'-hexane)-bis-(3,3'-indolyl)]-1H-pyrrole-2,5-dione], the IC50 was 0.07 µM against PKC-β1; 1 µM against PKC-α; 0.08 µM at PKC-β2; more than 100 µM against src; more than 100 µM against casein protein kinase II; 2 µM in test [2].
Consider `NCC1CCCn2cc(c3ccccc32)C2=C(C(=O)NC2=O)c2cn(c3ccccc23)CC1` (stereo not shown) [Example 33, 3,4-[(N,N'-1,1'-(3"-aminomethylene)-hexane)-bis-(3,3'-indolyl)]-1H-pyrrole-2,5-dione], for which the IC50 on PKC-β1 turned out to be 0.05 µM; against PKC-α, 0.4 µM; against PKC-β2, 0.04 µM; against src, 61 µM; in test [2] it was 0.6 µM.
Consider `O=C1NC(=O)C2=C1c1cn(c3ccccc13)CCCC(CNCc1ccccc1)CCn1cc2c2ccccc21` (stereo not shown) [Example 34, 3,4-[(N,N'-1,1'-(3"-(N-benzylamino)methylene)-hexane)-bis-(3,3'-indolyl)]-1H-pyrrole-2,5-dione trifluoroacetate salt], for which the IC50 at PKC-β1 is 0.1 µM; on PKC-α, 1 µM; on PKC-β2 it was 0.1 µM; on src, more than 100 µM; on casein protein kinase II, more than 100 µM; in test [2], 4 µM.
For `O=C1NC(=O)C2=C1c1cn(c3ccccc13)CCCC(CN(Cc1ccccc1)Cc1ccccc1)CCn1cc2c2ccccc21` (stereo not shown) [Example 35, 3,4-[(N,N'-1,1 '-(3"-(N,N-dibenzylamino)methylene)-hexane)-bis-(3,3'-indolyl)]-1H-pyrrole-2,5-dione trifluoroacetate salt], the IC50 at PKC-β1 was 3 µM; at PKC-α, 9 µM; on PKC-β2 it was 2 µM; against src it was more than 100 µM; on casein protein kinase II, more than 100 µM; in test [2] it was 82 µM.
Take `CN(C)CC1CCCn2cc(c3ccccc32)C2=C(C(=O)NC2=O)c2cn(c3ccccc23)CC1` (stereo not shown) [Example 40]: the IC50 against PKC-α is 0.6 µM; in test [1] it was more than 100 µM; at src, 4.4 µM; on casein protein kinase II it was more than 100 µM; in test [2], 5 µM.
As for `CN(C)C[C@@H]1CCCn2cc(c3ccccc32)C2=C(C(=O)NC2=O)c2cn(c3ccccc23)CC1` [Example 40r, (R)-3,4-[(N,N'-1,1'-(3"-(N,N-dimethylamino)methylene)-hexane)-bis-(3,3'-indolyl)]-1H-pyrrole-2,5-dione hydrochloride salt], the IC50 against PKC-α was 0.3 µM; in test [1] it was more than 100 µM; at src, 71 µM; against casein protein kinase II it was more than 100 µM; in test [2], 8 µM.
In the case of `O=C1NC(=O)C2=C1c1cn(c3ccccc13)CCCC(Cn1ccnc1)CCn1cc2c2ccccc21` (stereo not shown) [Example 41, 3,4-[(N,N'-1,1'-(3"-(N-imidazole)methylene)-hexane)-bis-(3,3'-indolyl)]-1H-pyrrole-2,5-dione], the IC50 was 0.3 µM against PKC-α, 91 µM at src, more than 100 µM at casein protein kinase II and 3 µM in test [2].
Take `O=C1NC(=O)C2=C1c1cn(c3ccccc13)CCCCCn1cc2c2ccccc21` [Example 43]: the IC50 on PKC-β1 is 0.04 µM; on PKC-α, 0.4 µM; against PKC-β2, 0.03 µM; on src, more than 100 µM; on casein protein kinase II it was more than 100 µM; in test [2], 0.6 µM.
